Values of other authors in US20080009448A1, “Peptide Derivative” (priority 2006, published 2008).
Non-standard residues stand in square brackets, D forms with d. No end group written: not given here. βAla = NCCC(=O)O

Settings: non-patent references 2-7, cited from earlier work

Row | Substance | anti-nociceptive activity compared with morphine on oral administration | anti-nociceptive activity compared with morphine on subcutaneous administration
1 | Nα-amidine-[Tyr]-[D-Arg]-[Phe]-[N-Methyl-β-Ala]-OH [ADAMB] | about 3.8 times | about 23 times
2 | Y[dR]F[βAla] [TAPA] | almost equal | nine times stronger
